# Data reported in ChEMBL document CHEMBL4417631, “Oral peptide inhibitors of interleukin-23 receptor and their use to treat inflammatory bowel diseases” (2017).
# Where a SMILES comes first, the peptide text is derived from it. [ ]: non-standard residue; d: D form. hLeu = CC(C)CC[C@H](N)C(=O)O
# Target: T1, Interleukin-23 receptor (Homo sapiens, UniProt Q5VWK5)
# T1 sequence (Q5VWK5 whole entry): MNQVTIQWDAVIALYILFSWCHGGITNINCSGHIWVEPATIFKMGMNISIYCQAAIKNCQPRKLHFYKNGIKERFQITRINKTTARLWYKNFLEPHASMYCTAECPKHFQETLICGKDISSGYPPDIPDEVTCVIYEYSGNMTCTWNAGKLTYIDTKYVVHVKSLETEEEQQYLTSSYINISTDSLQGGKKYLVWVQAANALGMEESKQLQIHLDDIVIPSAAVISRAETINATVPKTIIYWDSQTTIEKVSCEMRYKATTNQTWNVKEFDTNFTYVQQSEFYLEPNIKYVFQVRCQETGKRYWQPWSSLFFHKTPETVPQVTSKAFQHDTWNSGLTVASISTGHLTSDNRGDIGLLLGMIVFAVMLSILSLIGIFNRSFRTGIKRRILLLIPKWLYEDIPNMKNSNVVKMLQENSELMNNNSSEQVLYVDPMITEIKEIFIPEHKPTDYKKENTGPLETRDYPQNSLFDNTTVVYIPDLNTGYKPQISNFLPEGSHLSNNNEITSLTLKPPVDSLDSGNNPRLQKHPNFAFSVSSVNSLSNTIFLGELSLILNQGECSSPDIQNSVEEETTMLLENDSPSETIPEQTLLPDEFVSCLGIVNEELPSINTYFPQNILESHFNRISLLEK
# Assay: Inhibition of interleukin-23 binding to human interleukin-23 receptor incubated for 2 hrs by competitive binding ELISA
row,IC50,SMILES
1,> 30000 nM,CC(=O)N[C@@H](CS)C(=O)N[C@@H](C)C(=O)N[C@@H](CC(=O)O)C(=O)N[C@@H](Cc1c[nH]c2ccccc12)C(=O)N[C@H](C(=O)N[C@@H](CS)C(=O)N[C@@H](Cc1ccc(O)cc1)C(=O)N[C@@](C)(Cc1ccc(F)cc1)C(=O)N[C@@H](CCCN)C(=O)N[C@@H](CN)C(=O)N[C@@H](Cc1ccccc1)C(=O)NCC(=O)NCCOCC(=O)N[C@H](CCCCN)C(N)=O)C(C)C
2,> 30000 nM,CC(=O)N[C@@H](CS)C(=O)N[C@@H](CCCNC(=N)N)C(=O)N[C@H](C(=O)N[C@@H](Cc1c[nH]c2ccccc12)C(=O)N[C@@H](CCC(N)=O)C(=O)N[C@@H](CS)C(N)=O)[C@@H](C)O (Ac-CRTWQC-NH2)
3,> 1000 nM,CC(C)[C@H](NC(=O)[C@H](Cc1c[nH]c2ccccc12)NC(=O)[C@H](CC(=O)O)NC(=O)[C@@H](NC(=O)[C@@H](N)CS)[C@@H](C)O)C(=O)N[C@@H](CS)C(=O)N[C@@H](Cc1ccc(O)cc1)C(=O)N[C@@H](Cc1c[nH]c2ccccc12)C(=O)N[C@@H](Cc1cnc[nH]1)C(=O)N[C@@H](CCC(=O)O)C(=O)N[C@@H](Cc1ccc(O)cc1)C(=O)N[C@@H](CO)C(N)=O (H-CTDWVCYWHEYS-NH2)
4,< 500 nM,CC(=O)N[C@@H](CS)C(=O)N[C@@H](C)C(=O)N[C@@H](CC(=O)O)C(=O)N[C@@H](Cc1c[nH]c2ccccc12)C(=O)N[C@H](C(=O)N[C@@H](CS)C(=O)N[C@@H](Cc1ccc(O)cc1)C(=O)N[C@@H](Cc1c[nH]c2ccccc12)C(=O)N[C@@H](Cc1cnc[nH]1)C(=O)N[C@H](C(=O)N[C@@H](Cc1cnc[nH]1)C(=O)NCC(=O)N[C@@H](CCC(=O)O)C(=O)N[C@@H](CCCNC(=N)N)C(N)=O)[C@@H](C)O)C(C)C
5,> 10000 nM,CC(=O)N[C@@H](CS)C(=O)N[C@@H](CCC(N)=O)C(=O)N[C@H](C(=O)N[C@@H](CC(N)=O)C(=O)N[C@@H](CCC(N)=O)C(=O)N[C@@H](CS)C(=O)N[C@@H](Cc1ccc(O)cc1)C(=O)N[C@@H](Cc1c[nH]c2ccccc12)C(=O)N[C@@H](CCC(C)C)C(=O)N[C@@H](CCC(=O)O)C(=O)N[C@@H](CC(N)=O)C(=O)NCC(N)=O)[C@@H](C)O (Ac-CQTNQCYW[hLeu]ENG-NH2)
6,> 1000 nM,CC(=O)NCCCC[C@H](NC(=O)[C@](C)(CCCCN)NC(=O)[C@H](Cc1ccc2ccccc2c1)NC(=O)[C@H](CCc1ccc(O)cc1)NC(=O)[C@@H]1CSCC[C@H](NC(C)=O)C(=O)N[C@@H](CCC(N)=O)C(=O)N[C@@H]([C@@H](C)O)C(=O)N[C@@H](Cc2c[nH]c3ccccc23)C(=O)N[C@@H](CCC(N)=O)C(=O)N1)C(=O)N[C@@H](CC(N)=O)C(=O)NCC(N)=O
7,> 1000 nM,C[C@@H](O)[C@H](NC(=O)[C@H](CCC(=O)O)NC(=O)[C@@H](N)CS)C(=O)N[C@@H](Cc1c[nH]c2ccccc12)C(=O)N[C@@H](CCC(=O)O)C(=O)N[C@@H](CS)C(=O)N[C@@H](Cc1ccc(O)cc1)C(=O)N[C@@H](Cc1c[nH]c2ccccc12)C(=O)N[C@@H](Cc1cnc[nH]1)C(=O)N[C@@H](CO)C(=O)N[C@@H](Cc1ccccc1)C(=O)N[C@@H](CO)C(N)=O (H-CETWECYWHSFS-NH2)
8,< 500 nM,CC(=O)N[C@@H](CS)C(=O)N[C@@H](CCCNC(=N)N)C(=O)N[C@H](C(=O)N[C@@H](Cc1c[nH]c2ccccc12)C(=O)N[C@@H](CCC(=O)O)C(=O)N[C@@H](CS)C(=O)N[C@@H](Cc1ccc(O)cc1)C(=O)N[C@@H](Cc1c[nH]c2ccccc12)C(=O)N[C@@H](Cc1cnc[nH]1)C(=O)N[C@@H](CCC(=O)O)C(=O)N[C@@H](Cc1ccc(O)cc1)C(=O)NCC(N)=O)[C@@H](C)O (Ac-CRTWECYWHEYG-NH2)
9,100 to 1000 nM,CC(=O)N[C@H](C(=O)N[C@@](C)(CCCN)C(=O)N[C@H](C(=O)N[C@@H](Cc1c[nH]c2ccccc12)C(=O)N[C@@H](CCC(N)=O)C(=O)N[C@H](C(=O)N[C@@H](Cc1ccc(OCCN)cc1)C(=O)N[C@@H](Cc1ccc2ccccc2c1)C(=O)N[C@@](C)(CCCCN)C(=O)N[C@@H](CCC(=O)O)C(=O)N[C@@H](CC(N)=O)C(=O)NCC(N)=O)C(C)(C)S)[C@@H](C)O)C(C)(C)S
10,< 500 nM,CC(=O)N[C@@H](CS)C(=O)N[C@@H](CCC(=O)O)C(=O)N[C@@H](CC(=O)O)C(=O)N[C@@H](Cc1c[nH]c2ccccc12)C(=O)N[C@@H](CCCCN)C(=O)N[C@@H](CS)C(=O)N[C@@H](Cc1ccc(O)cc1)C(=O)N[C@@H](Cc1c[nH]c2ccccc12)C(=O)N[C@@H](Cc1cnc[nH]1)C(=O)N[C@@H](CCCCN)C(=O)N[C@@H](Cc1ccc(O)cc1)C(=O)NCC(N)=O (Ac-CEDWKCYWHKYG-NH2)
11,> 1000 nM,CC(C)[C@H](NC(=O)[C@H](Cc1c[nH]c2ccccc12)NC(=O)[C@H](CC(=O)O)NC(=O)[C@H](C)NC(=O)[C@H](CS)NC(=O)COCCN)C(=O)N[C@@H](CS)C(=O)N[C@@H](Cc1ccc(O)cc1)C(=O)N[C@@H](Cc1c[nH]c2ccccc12)C(=O)N[C@@H](Cc1cnc[nH]1)C(=O)N[C@H](C(=O)N[C@@H](Cc1ccccc1)C(=O)NCC(=O)O)[C@@H](C)O
12,> 1000 nM,CC(C)[C@H](NC(=O)[C@H](Cc1c[nH]c2ccccc12)N(C)C(=O)[C@H](CC(=O)O)NC(=O)[C@H](C)NC(=O)[C@@H](N)CS)C(=O)N[C@@H](CS)C(=O)N[C@@H](Cc1ccc(O)cc1)C(=O)N[C@@H](Cc1cccc2ccccc12)C(=O)N[C@@H](Cc1cnc[nH]1)C(=O)N[C@H](C(=O)N[C@@H](Cc1ccccc1)C(=O)O)[C@@H](C)O
13,> 1000 nM,CC(=O)N[C@@H](CS)C(=O)N[C@@H](C)C(=O)N[C@@H](CC(=O)O)C(=O)N[C@@H](Cc1c[nH]c2ccccc12)C(=O)N[C@H](C(=O)N[C@@H](CS)C(N)=O)C(C)C (Ac-CADWVC-NH2)
14,> 3000 nM,CC(=O)NCCCC[C@H](NC(=O)[C@](C)(CCCCN)NC(=O)NC(=O)[C@H](Cc1ccc(OCCN)cc1)NC(=O)[C@@H]1CSCC[C@H](NC(C)=O)C(=O)N[C@@H](CCC(N)=O)C(=O)N[C@@H]([C@@H](C)O)C(=O)N[C@@H](Cc2c[nH]c3ccccc23)C(=O)N[C@@H](CCC(N)=O)C(=O)N1)C(=O)N[C@@H](CC(N)=O)C(=O)NCC(N)=O
15,< 500 nM,CC(=O)N[C@@H](CS)C(=O)N[C@@H](C)C(=O)N[C@@H](CC(=O)O)C(=O)N[C@@H](Cc1c[nH]c2ccccc12)C(=O)N[C@H](C(=O)N[C@@H](CS)C(=O)N[C@@H](Cc1ccc(O)cc1)C(=O)N[C@@H](Cc1c[nH]c2ccccc12)C(=O)N[C@@H](Cc1cnc[nH]1)C(=O)N[C@H](C(=O)N[C@@H](Cc1ccccc1)C(=O)NCC(=O)N[C@@H](CCC(=O)O)C(=O)N[C@@H](CCCNC(=N)N)C(N)=O)[C@@H](C)O)C(C)C
16,< 500 nM,C[C@@H](O)[C@H](NC(=O)[C@H](CCCNC(=N)N)NC(=O)[C@@H](N)CS)C(=O)N[C@@H](Cc1c[nH]c2ccccc12)C(=O)N[C@@H](CCC(N)=O)C(=O)N[C@@H](CS)C(=O)N[C@@H](Cc1ccc(O)cc1)C(=O)N[C@@H](Cc1c[nH]c2ccccc12)C(=O)N[C@@H](CCCNC(=N)N)C(=O)N[C@@H](CCCCN)C(=O)N[C@@H](Cc1ccccc1)C(=O)NCC(N)=O (H-CRTWQCYWRKFG-NH2)
17,> 30000 nM,CC(=O)N[C@@H](CS)C(=O)N[C@@H](CCC(N)=O)C(=O)N[C@H](C(=O)N[C@@H](Cc1c[nH]c2ccccc12)C(=O)N[C@@H](CCC(N)=O)C(=O)N[C@@H](CS)C(=O)N(C)[C@@H](Cc1ccc(O)cc1)C(=O)N[C@@H](Cc1c[nH]c2ccccc12)C(=O)N[C@@H](CCC(C)C)C(=O)N[C@@H](CCC(=O)O)C(=O)N[C@@H](CC(N)=O)C(=O)NCC(N)=O)[C@@H](C)O
18,1000 to 10000 nM,CC(=O)N[C@@H](C)C(=O)N[C@@H](CS)C(=O)N[C@@H](CC(=O)O)C(=O)N[C@@H](Cc1c[nH]c2ccccc12)C(=O)N[C@H](C(=O)N[C@H](C(=O)N[C@@H](Cc1ccc(O)cc1)C(=O)N[C@@H](Cc1c[nH]c2ccccc12)C(=O)N[C@@H](CCCNC(=N)N)C(=O)N[C@@H](CCCCN)C(=O)N[C@@H](Cc1ccccc1)C(=O)NCC(=O)NCCOCC(=O)N[C@H](CCCCN)C(N)=O)C(C)(C)S)C(C)C
19,> 30000 nM,CC(=O)N[C@@H](CS)C(=O)N[C@@H](CCC(N)=O)C(=O)N[C@H](C(=O)N[C@@H](Cc1c[nH]c2ccccc12)C(=O)N[C@@H](CCC(N)=O)C(=O)N[C@@H](CS)C(=O)N[C@@H](CCC(=O)O)C(=O)N[C@@H](Cc1c[nH]c2ccccc12)C(=O)N[C@@H](CCC(C)C)C(=O)N[C@@H](CCC(=O)O)C(=O)N[C@@H](CC(N)=O)C(=O)NCC(N)=O)[C@@H](C)O
20,> 30000 nM,CC(=O)N[C@@H](C)C(=O)N[C@H](C(=O)N[C@@H](CC(=O)O)C(=O)N[C@@H](Cc1c[nH]c2ccccc12)C(=O)N[C@H](C(=O)N[C@H](C(=O)N[C@@H](Cc1ccc(O)cc1)C(=O)N[C@@H](Cc1c[nH]c2ccccc12)C(=O)N[C@@H](CCCNC(=N)N)C(=O)N[C@@H](CCCCN)C(=O)N[C@@H](Cc1ccccc1)C(=O)NCC(=O)NCCOCC(=O)N[C@H](CCCCN)C(N)=O)C(C)(C)S)C(C)C)C(C)(C)S
21,< 500 nM,CC(=O)N[C@@H](CS)C(=O)N[C@@H](CCC(N)=O)C(=O)N[C@H](C(=O)N[C@@H](Cc1c[nH]c2ccccc12)C(=O)N[C@@H](CCC(N)=O)C(=O)N[C@@H](CS)C(=O)N[C@@H](Cc1ccc(O)cc1)C(=O)N[C@@H](Cc1c[nH]c2ccccc12)C(=O)N[C@@H](CCCNC(=N)N)C(=O)N[C@@H](CCC(=O)O)C(=O)N[C@@H](CC(N)=O)C(=O)NCC(N)=O)[C@@H](C)O (Ac-CQTWQCYWRENG-NH2)
